From patent US20180028480A1, “METHODS OF REDUCING OR PREVENTING OXIDATIVE MODIFICATION OF MEMBRANE POLYUNSATURATED FATTY ACIDS” (Amarin Pharmaceuticals Ireland Limited, priority 2015, published 2018) come the findings set out here.

The structures appear in SMILES notation.

Test [1] deals with lipid vesicles enriched with PUFAs and cholesterol. In words: Glucose-induced membrane lipid peroxidation (LOOH) in DLPC/cholesterol multilamellar vesicles (Example 4). The test is classed as biochemical. The conditions noted are these: for effect on LOOH formation / lipid peroxidation: 72- and 96-hour time points, 1:30 drug-to-phospholipid mole ratio (FIG. 3). As for the experimental part: Vitamin E (α-tocopherol) was also purchased from Sigma-Aldrich and prepared in ethanol at 1.0 mM (ε32 3.06×10^4 M^−1 cm^−1 at 294 nm) just prior to experimental use. […] All test compounds were further diluted in ethanol or aqueous buffer as needed. Glucose was prepared in saline buffer (0.5 mM HEPES, 154 mM NaCl, pH 7.3) at 11.0 mM (200 mg/dL). CHOD-iodide color reagent (stock) was prepared, with slight modification, as described by from El-Saadani et al. (J. […] Prior to experimental use, the CHOD reagent was activated by adding 24 μM ethylenediaminetetraacetic acid (EDTA), 20 μM butylated hydroxytoluene (BHT), and 0.2% Triton X-100. Multilamellar vesicles (MLVs) were prepared as binary mixtures of DLPC (1.0 or 2.5 mg total phospholipid per sample) and cholesterol at a fixed cholesterol-to-phospholipid (C/P) mole ratio of 0.6:1. Component lipids (in chloroform) were transferred to 13×100 mm borosilicate culture tubes and combined with vehicle (ethanol) or an equal volume of fatty acid, vitamin E, or ATM stock solutions, each adjusted to achieve desired treatment concentrations. Samples were shell-dried under nitrogen gas and placed under vacuum for 1 h to remove residual solvent. […] Lipid suspensions were then vortexed for 3 min at ambient temperature to form MLVs. All MLV samples were subjected to time-dependent autoxidation by incubating at 37° C. in an uncovered, shaking water bath. This method allows lipid peroxidation to occur gradually without requiring the use of exogenous initiators. Small aliquots (5-100 μL) of each sample were removed, immediately following MLV preparation (0 hour) and after exposing samples to oxidative conditions for 72 or 96 hour, and combined with 1.0 mL of activated CHOD-iodide color reagent. Aliquot volume was reduced with each successive time point to ensure that spectrophotometric readings were within the optimal adsorption range. Test samples were covered and incubated in darkness at room temperature for at least 4 hr. Sample absorbances were then measured against a CHOD blank at 365 nm using a Beckman DU-640 spectrophotometer. The CHOD colorimetric assay is based on the oxidation of iodide (I^−) by lipid hydroperoxide (LOOH) to form triiodide (I3^−), the quantity of which is directly proportional to the amount of LOOH present in the lipid sample. The molar absorptivity (c) of I3^− is 2.46×10^4 M^−1 cm^−1 at 365 nm. […] The concentration of glucose selected was consistent with previous experimental studies of hyperglycemia under controlled laboratory conditions or observed in well-defined animal models of Type II diabetes following a glucose challenge. […] Values in FIG. 1 are mean±S.D. (N=6). […]

Test [2] can be described thus: Small angle x-ray diffraction of glucose-treated model membranes: structure and cholesterol domains (Example 4). The following applies: for effect on membrane structure compared to control: 0 hours, 1:30 drug-to-phospholipid mole ratio, glucose 200 mg/dL. As for the experimental part: Multilamellar vesicles (MLVs) were prepared as binary mixtures of DLPC (1.0 or 2.5 mg total phospholipid per sample) and cholesterol at a fixed cholesterol-to-phospholipid (C/P) mole ratio of 0.6:1. Component lipids (in chloroform) were transferred to 13×100 mm borosilicate culture tubes and combined with vehicle (ethanol) or an equal volume of fatty acid, vitamin E, or ATM stock solutions, each adjusted to achieve desired treatment concentrations. Samples were shell-dried under nitrogen gas and placed under vacuum for 1 h to remove residual solvent. After desiccation, each sample was resuspended in 1.0 mL glucose-containing saline to yield final phospholipid concentrations of 1.0 or 2.5 mg/mL (for lipid peroxidation or x-ray diffraction analysis, respectively). Lipid suspensions were then vortexed for 3 min at ambient temperature to form MLVs.
The membrane structural effects of glucose and the various compounds examined in this study were measured at 0, 72, and 96 hour intervals. Membrane lipid vesicles were oriented for x-ray diffraction analysis as described by others (e.g., Herbette et al., Biophys. J., vol. 20(2), pages 245-272 (1977)). Briefly, a 100 μL aliquot (containing 250 μg MLV) was aspirated from each sample and transferred to a Lucite® sedimentation cell fitted with an aluminum foil substrate upon which a given sample could be collected by centrifugation. Samples were then loaded into a Sorvall AH-629 swinging bucket rotor (DuPont Corp., Wilmington, Del.) and centrifuged at 35,000 g, 5° C., for 90 min.
After centrifugal orientation, sample supernatants were aspirated and aluminum foil substrates, each supporting a single membrane pellet, were removed from the sedimentation cells. […]
The d-space for any given membrane multibilayer is a measurement of the unit cell periodicity of the membrane lipid bilayer (e.g., the distance from the center of one lipid bilayer to the next including surface hydration), and is calculated from Bragg's Law, hλ=2 d sin θ, where h is the diffraction order, λ is the wavelength of the x-ray radiation (1.54 Å), d is the membrane lipid bilayer unit cell periodicity, and θ is the Bragg angle equal to one-half the angle between the incident beam and scattered beam.
The presence of cholesterol domains in a given membrane sample results in the production of distinct Bragg (diffraction) peaks having singular periodicity values of 34 and 17 Å (typically referred to as first- and second-order cholesterol domain peaks). Under the specific temperature and relative humidity conditions established for these experiments, the second-order, 17 Å cholesterol domain peak was well-delineated from other, neighboring cholesterol and phospholipid diffraction peaks and was thus used to quantitate relative cholesterol domain peak intensity. […]

Test [3] deals with Human umbilical vein endothelial cells (HUVECs). Kind of test: Nitric oxide release from HUVECs incubated with pretreated oxidized sdLDL (Example 7). It is filed as cell-based. The conditions noted are these: oxidized sdLDL pretreated at 10.0 μM. As for the experimental part: All samples, with the exception of non-oxidized sdLDL controls, were subjected to copper-induced oxidation for 1 hour. Human umbilical vein endothelial cells (HUVECs) were incubated with the various sdLDL samples, stimulated with calcium, and monitored for nitric oxide (NO) and peroxynitrite (ONOO^-) release using nanosensor technology.

With `Cc1c(C)c2c(c(C)c1O)CC[C@@](C)(CCC[C@H](C)CCC[C@H](C)CCCC(C)C)O2` [vitamin E, α-tocopherol, reference compound], the “effect on LOOH formation / lipid peroxidation” value in test [1] is “no significant effect on lipid peroxidation”. Also, the “effect on membrane structure compared to control” value in test [2] is given as “no appreciable effect on membrane structure”. The cholesterol domain peaks result in test [2] (96 hours of oxidative conditions) was “disproportionately greater”. Moreover, the “effect on cholesterol domain formation (cholesterol domain peak intensity) compared to control” value in test [2] (any experimental time point (FIG. 5)) is on record as “no significant effect on cholesterol domain formation”.

On to `CC/C=C\C/C=C\C/C=C\C/C=C\C/C=C\CCCC(=O)O` [EPA, cis-5,8,11,14,17-Eicosapentaenoic acid], for which the “effect on LOOH formation / lipid peroxidation” value in test [1] is given as “significantly inhibited LOOH formation”. Further, the “antioxidant effect (LOOH formation), separate treatments” value in test [1] (each at 1.0 μM, glucose 200 mg/dL, 96 hours) was “separate and potent antioxidant effects”. The “effect on membrane structure compared to control” value in test [2] is recorded as “no appreciable effect on membrane structure”. Besides, in test [3], the “increase of NO release as compared to non-oxidized sdLDL treatment” value amounted to 23% and the “increase of NO release as compared to oxidized LDL treatment” value turned out to be 53%.
